In patent US20240246918A1, “COMPOUNDS AND COMPOSITIONS AS EIF4E INHIBITORS AND THE USES THEREOF” (Ribometrix, Inc., priority 2022, published 2024):
Like-named read-outs stand apart in the source and are kept apart here.

What was measured:
[1] = system: cap-dependent translation in Flp-In-293 reporter cells; test: Cellular cap-dependent translation inhibition assay (dual luciferase assay, DLA; Fluc/Rluc ratio, 24 hours); assay type: cell-based
human eIF4E protein = molecular target: T1, human eIF4E protein (Homo sapiens, UniProt P06730); test: Biochemical competitive binding assay (TR-FRET competition, EDA-m7GDP-ATTO-647N probe); settings: read-out: hEIF4E TR-FRET IC50
T1 construct: purchased Novus NBP-45314
T1 sequence (P06730 whole entry): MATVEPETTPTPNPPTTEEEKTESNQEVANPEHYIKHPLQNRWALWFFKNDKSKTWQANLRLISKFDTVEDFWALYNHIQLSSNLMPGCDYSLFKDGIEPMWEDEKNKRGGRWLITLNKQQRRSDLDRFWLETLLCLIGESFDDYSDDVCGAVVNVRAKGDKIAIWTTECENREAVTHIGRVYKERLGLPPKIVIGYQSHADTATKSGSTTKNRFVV
Outline: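 IC50 values come from 4-parameter fits of the normalized 665/620 nm TR-FRET ratio. Compound was first incubated 15 min with 4 nM recombinant His-eIF4E bound to 2.5 nM Eu-anti-His antibody, then 15 min with 5 nM m7GDP-ATTO-647N tracer, in pH 7.5 HEPES buffer with 100 mM KCl, Tween-20 and BSA.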

[2] = system: COLO 205 colorectal tumor cells; test: Tumor cell viability inhibition assay (CellTiter-Glo 2.0, 72 hours); assay type: cell-based; settings: COLO 205 cell viability
Outline: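 IC50 derived by 4-parameter fitting after normalizing luminescence to DMSO and max-inhibition wells. Compounds tested as 11 concentrations in 4-fold steps on COLO 205 cells seeded at 1500 per well in RPMI-1640/10% FBS; ATP content measured with CellTiter-Glo 2.0 after 72 h.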

[3] = dual luciferase assay, Flp-In-293 reporter cells, 24 hours, Fluc/Rluc ratio, read-out: DLA 205 IC50

SMILES	IC50 (human eIF4E protein)	IC50 ([2]; Homo sapiens, COLO 205, 72 h)	further results
COC1CCc2nc(C)n(CCOc3ccc(Cl)cc3-c3cc(C)nc4c(C(=O)O)csc34)c(=O)c2C1 (centres unmarked) [Compound 7]	0.1 to 0.5 µM	–	IC50 ([1]; Homo sapiens, Flp-In-293, 24 h, read-out: DLA 205 IC50, dual luciferase assay, Flp-In-293 reporter cells, 24 hours, Fluc/Rluc ratio): 1 to 5 µM; IC50 ([2]; Homo sapiens): 5 to 20 µM
Cc1nc2c(c(=O)n1CC#Cc1ccc(Cl)cc1-c1ccnc3c(C(=O)NS(C)(=O)=O)csc13)CC(N1CCCCC1)CC2 (single isomer, unassigned) [Compound 316]	< 0.1 µM	–	IC50 [1, 3]: 1 to 5 µM; IC50 [2]: 5 to 20 µM
COC1CCc2nc(C)n(CCOc3ccc(Cl)cc3-c3cc(C)nc4c(C(=O)O)csc34)c(=O)c2C1 (single isomer, unassigned) [Compound 5]	0.1 to 0.5 µM	–	IC50 ([1]; read-out: DLA 205 IC50, dual luciferase assay, Flp-In-293 reporter cells, 24 hours, Fluc/Rluc ratio): > 5 µM; IC50 [2]: 5 to 20 µM
Cc1nc2c(c(=O)n1CC#Cc1ccc(Cl)cc1-c1ccnc3c(C(=O)O)csc13)CC(N1CCCCC1)CC2 (single isomer, unassigned) [Compound 299]	< 0.1 µM	–	IC50 [1, 3]: 1 to 5 µM; IC50 [2]: 5 to 20 µM
Cc1cc(-c2cc(Cl)ccc2OCCn2c(C)nc3c(c2=O)C[C@@H](N2CCCC(F)(F)CC2)CC32CC2)c2scc(C(=O)O)c2n1 (single isomer, unassigned) [Compound 544]	< 0.1 µM	< 5 µM	–
Cc1cc(-c2cc(Cl)ccc2OCCn2c(C)nc3c(c2=O)C[C@H](N2CCC(c4cc(F)cc(F)c4F)CC2)CC3)c2scc(C(=O)O)c2n1 (single isomer, unassigned) [Compound 573]	< 0.1 µM	< 5 µM	–
Cc1cc(-c2cc(Cl)c(=O)[nH]c2OCCn2c(C)nc3c(c2=O)CC(N(C)CC2CC(F)(F)C2)CC3)c2scc(C(=O)O)c2n1 (single isomer, unassigned) [Compound 237]	0.5 to 5 µM	> 20 µM	–
Cc1cc(-c2cc(Cl)ccc2OCCn2c(C)nc3c(c2=O)CC(CN(C)C)(N2CCC(OC(F)(F)F)CC2)CC3)c2scc(C(=O)O)c2n1 (single isomer, unassigned) [Compound 621]	0.1 to 0.5 µM	–	IC50 [2]: > 20 µM
Cc1cc(-c2cc(Cl)ccc2OCCn2c(C)nc3c(c2=O)C[C@@H](N2CCC(COC(F)(F)F)CC2)CC32CC2)c2scc(C(=O)O)c2n1 (single isomer, unassigned) [Compound 561]	< 0.1 µM	< 5 µM	–
Cc1cc(-c2cc(Cl)ccc2OCCn2c(C)nc3c(c2=O)CC(N2CC4CC(C2)C4(F)F)CC3)c2scc(C(=O)O)c2n1 (single isomer, unassigned) [Compound 375]	< 0.1 µM	–	IC50 [2]: < 5 µM
Cc1cc(-c2cc(Cl)ccc2OCCn2c(C)nc3c(c2=O)C[C@@H](N2C[C@@H]4CC(F)(F)C[C@@H]4C2)CC32CC2)c2scc(C(=O)O)c2n1 (single isomer, unassigned) [Compound 619]	< 0.1 µM	< 5 µM	–
Cc1cc(-c2cc(Cl)ccc2OCCn2c(C)nc3c(c2=O)C[C@H](N2CCC(c4nc(C(F)(F)F)cs4)CC2)CC3)c2scc(C(=O)O)c2n1 (single isomer, unassigned) [Compound 577]	< 0.1 µM	< 5 µM	–
Cc1cc(-c2cc(Cl)ccc2OCCn2c(C)nc3c(c2=O)C[C@H](N2CCC(c4cnn(C)c4)CC2)CC3)c2scc(C(=O)O)c2n1 (single isomer, unassigned) [Compound 426]	< 0.1 µM	5 to 20 µM	–
Cc1cc(-c2cc(Cl)ccc2OCCn2c(C)nc3c(c2=O)C[C@@](C)(N2C[C@@H]4CC(F)(F)C[C@@H]4C2)CC3)c2scc(C(=O)O)c2n1 (stereo in doubt) [Compound 567]	< 0.1 µM	< 5 µM	–
Cc1cc(-c2cc(Cl)ccc2OCCn2c(C)nc3c(c2=O)CC(N2CCC(CC(F)(F)F)CC2)CC3(C)C)c2scc(C(=O)O)c2n1 (single isomer, unassigned) [Compound 492]	< 0.1 µM	< 5 µM	–
Cc1cc(-c2cc(Cl)ccc2OCCn2c(C)nc3c(c2=O)C[C@@H](N2Cc4cc(F)c(F)cc4C2)CC3)c2scc(C(=O)O)c2n1 (single isomer, unassigned) [Compound 533]	< 0.1 µM	< 5 µM	–
Cc1cc(-c2cc(Cl)ccc2OCCn2c(C)nc3c(c2=O)CC(N(C)C24CC5CC(CC(C5)C2)C4)CC3)c2scc(C(=O)O)c2n1 (single isomer, unassigned) [Compound 468]	< 0.1 µM	< 5 µM	–
[2H]C([2H])([2H])N(Cc1ccnc(OC)c1)C1CCc2nc(C)n(CCOc3ccc(Cl)cc3-c3cc(C)nc4c(C(=O)O)csc34)c(=O)c2C1 (centres unmarked) [Compound 125, 7-(5-chloro-2-(2-(6-(((2-methoxypyridin-4-yl)methyl)(methyl-d3)amino)-2-methyl-4-oxo-5,6,7,8-tetrahydroquinazolin-3(4H)-yl)ethoxy)phenyl)-5-methylthieno[3,2-b]pyridine-3-carboxylic acid]	< 0.1 µM	< 5 µM	–

SMILES	IC50 (human eIF4E protein)	IC50 ([2]; Homo sapiens, COLO 205, 72 h)	further results
CCS(=O)(=O)C1CCN(C2CCc3nc(C)n(CCOc4ccc(Cl)cc4-c4cc(C)nc5c(C(=O)O)csc45)c(=O)c3C2)CC1 (centres unmarked) [Compound 115]	< 0.1 µM	5 to 20 µM	–
Cc1cc(-c2cc(Cl)ccc2OCCn2c(C)nc3c(c2=O)C[C@@H](N2CCC4(CC2)CC4(F)F)CC3)c2scc(C(=O)O)c2n1 (single isomer, unassigned) [Compound 391]	< 0.1 µM	< 5 µM	–
Cc1cc(-c2cc(Cl)ccc2OCCn2c(C)nc3c(c2=O)CC(N2CCC4(CN(CC(F)(F)F)CC(F)(F)C4)C2)CC3)c2scc(C(=O)O)c2n1 (single isomer, unassigned) [Compound 511]	< 0.1 µM	< 5 µM	–
CO[C@H]1CCN([C@@H]2CCc3nc(C)n(CCOc4ccc(Cl)cc4-c4cc(C)nc5c(C(=O)O)csc45)c(=O)c3C2)CC12CC2 (single isomer, unassigned) [Compound 520]	< 0.1 µM	< 5 µM	–
Cc1csc([C@@H]2CCCN([C@@H]3CCc4nc(C)n(CCOc5ccc(Cl)cc5-c5cc(C)nc6c(C(=O)O)csc56)c(=O)c4C3)C2)n1 (single isomer, unassigned) [Compound 484]	< 0.1 µM	< 5 µM	–
Cc1cc(-c2cc(Cl)ccc2OCCn2c(C)nc3c(c2=O)C[C@H](N2CCC[C@@]4(C2)CC4(F)F)CC3(C)C)c2scc(C(=O)O)c2n1 (single isomer, unassigned) [Compound 439]	< 0.1 µM	< 5 µM	–
Cc1cc(-c2cc(Cl)ccc2OCCn2c(C)nc3c(c2=O)CC(N2CC4(CCCN(CC(F)(F)F)C4)C2)CC3)c2scc(C(=O)O)c2n1 (single isomer, unassigned) [Compound 507]	< 0.1 µM	< 5 µM	–
Cc1cc(-c2cc(Cl)c(=O)[nH]c2OCCn2c(C)nc3c(c2=O)CC(N(C)C2CC2)CC3)c2scc(C(=O)O)c2n1 (single isomer, unassigned) [Compound 234]	0.5 to 5 µM	–	IC50 [2]: > 20 µM
Cc1cc(-c2cc(Cl)c(=O)[nH]c2OCCn2c(C)nc3c(c2=O)CC(N(C)C2CC2)CC3)c2scc(C(=O)O)c2n1 (single isomer, unassigned) [Compound 233]	0.5 to 5 µM	> 20 µM	–
Cc1cc(-c2cc(Cl)ccc2OCCn2c(C)nc3c(c2=O)C[C@@H](N2CCC[C@]4(C2)CC4(F)F)CC3(C)C)c2scc(C(=O)O)c2n1 (single isomer, unassigned) [Compound 440]	< 0.1 µM	5 to 20 µM	–
Cc1cc(-c2cc(Cl)ccc2OCCn2c(C)nc3c(c2=O)C[C@H](N2C[C@@H]4CC[C@H]2CC4OC(F)(F)F)CC3)c2scc(C(=O)O)c2n1 (single isomer, unassigned) [Compound 501]	< 0.1 µM	< 5 µM	–
Cc1cc(-c2cc(Cl)ccc2OCCn2c(C)nc3c(c2=O)C[C@H](N2C[C@H]4CC[C@@H]2CC4OC(F)(F)F)CC3)c2scc(C(=O)O)c2n1 (single isomer, unassigned) [Compound 499]	< 0.1 µM	< 5 µM	–
Cc1cc(-c2cc(Cl)ccc2OCCn2c(C)nc3c(c2=O)CC(C)(N2CCC(C(F)(F)F)CC2)CC3)c2scc(C(=O)O)c2n1 (single isomer, unassigned) [Compound 531]	< 0.1 µM	–	IC50 [2]: < 5 µM
Cc1cc(-c2cc(Cl)ccc2OCCn2c(C)nc3c(c2=O)CC(CN)(N2CCC(OC(F)(F)F)CC2)CC3)c2scc(C(=O)O)c2n1 (single isomer, unassigned) [Compound 623]	0.1 to 0.5 µM	–	IC50 [2]: > 20 µM
Cc1cc(-c2cc(Cl)ccc2OCCn2c(C)nc3c(c2=O)CC(N2CCC4(CC2)CN(CC(F)(F)F)CCO4)CC3)c2scc(C(=O)O)c2n1 (single isomer, unassigned) [Compound 517]	< 0.1 µM	< 5 µM	–
Cc1cc(-c2cc(Cl)ccc2OCCn2c(C)nc3c(c2=O)CC(N2CCC(OC(F)(F)F)CC2)CC32CC2)c2scc(C(=O)O)c2n1 (single isomer, unassigned) [Compound 380, 7-(5-chloro-2-(2-(2′-methyl-4′-oxo-6′-(4-(trifluoromethoxy)piperidin-1-yl)-6′,7′-dihydro-4′H-spiro[cyclopropane-1,8′-quinazolin]-3′(5′H)-yl)ethoxy)phenyl)-5-methylthieno[3,2-b]pyridine-3-carboxylic acid]	< 0.1 µM	–	IC50 [2]: < 5 µM
Cc1cc(-c2cc(Cl)ccc2OCCn2c(C)nc3c(c2=O)C[C@H](N2CCCC[C@@H]2c2cccc(C(F)(F)F)c2)CC3)c2scc(C(=O)O)c2n1 (single isomer, unassigned) [Compound 590]	0.5 to 5 µM	> 20 µM	–
